Patent US6767738B1, “Method of isolating adult mammalian CNS-derived progenitor stem cells using density gradient centrifugation” (The Salk Institute for Biological Studies, priority 1999, dated 2004)

Test system: clonal stem cells (AP14)
Assay: Neuronal differentiation of clonal adult stem cell cultures (Map2ab immunofluorescence)
Assay type: cell-based, rat
Procedure: Cell Culture. For proliferating conditions, clonal stem cells (AP14) were cultured in Dulbecco's Modified Eagles Medium/Ham's F12 (DMEM/F12, 1:1) containing N2 supplement (Gibco BRL, Gaithersburg, Md.) and 20 ng/ml rhFGF-2 (provided by A. Baird, Prizm Pharmaceuticals Inc., La Jolla, Calif.). Culture dishes (Becton Dickinsin Labware, Lincoln Park, N.J.) were coated with polyomithine and mouse laminin as previously described by Ray, et al., Proliferation, differentiation and long-term culture of primary hippocampal neurons, Proc Natl Acad Sci USA 90:3602-3606 (1993). For differentiation experiments, cells were plated into polyornithine/laminin coated glass chamber slides (Nunc, Naperville, Ill.) at a density of 2.5—103 per cm2. […] Louis, Mo.). For further differentiation, the medium was replaced by N2 medium containing 0.5% FBS and one of the following: sterile water (control solvent), mouse 2.55 NGF (50 ng/ml, Boehringer Mannheim, Indianapolis, Ind.), rhBDNF (20 ng/ml, Alomone Labs, Jerusalem, Israel), rhNT-3 (40 ng/ml, Genentech, South San Francisco, Calif.). […]
Immunofluorescence. […] Both the average percentage and the absolute number +/− SEM of immunofluorescent cells were determined by counting 10 or 50 high power fields (20×) visualized under fluorescence. The total number of cells was counted using nuclear counterstaining with 4′,6diamidino-2-phenylindole (DAPI, Sigma). […]

SMILES: CC1=C(/C=C/C(C)=C/C=C/C(C)=C/C(=O)O)C(C)(C)CCC1 [RA, all-trans retinoic acid]
- number of Map2ab-immunoreactive (IR) neurons relative to growth factor withdrawal and 0.5% serum alone (FGF-2 withdrawal, 500 nM RA plus 0.5% FBS 6 days, then 6 days 0.5% serum alone): more than tripled
- increase in number of MAP2ab-positive cells (RA for 6 days, then RA withdrawn for additional 6 days): 3 fold
